Among the data in patent US7217730B2, “Method for the use of pyranoindole derivatives to treat infection with Hepatitis C virus” (Wyeth, priority 2002, dated 2007) are IC50 values, retold here.

Experiment [1] concerns the target BB7 (RNA-dependent RNA polymerase hepatitis C virus protein sequence derived from HCV replicon) (Hepatitis C virus genotype 1b, UniProt Q9WMX2). Nature of the experiment: Hepatitis C polymerase inhibition, BB7 sequence. It is filed as biochemical. As to conditions: Table 1B.
Experiment [2] concerns the target T1, NS5B from the BK strain (genotype 1b) (Hepatitis C virus genotype 1b, UniProt P26663).
T1 construct: NS5B from the BK strain (genotype 1b) is expressed in E. coli as a protein in which the 21 C-terminal amino acids are replaced; made in house; host or cells: E. coli
Nature of the experiment: Hepatitis C polymerase inhibition, NS5B BK strain, 33P-GTP filter assay. The format is biochemical. As to conditions: Table 1B; NS5B BK strain; read-out: BK IC50. In short, it runs like this: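 E. coli-expressed NS5B (BK, genotype 1b) with the 21 C-terminal residues replaced by a linker-His6 tag was preincubated with compound for 15 min at room temperature. It then extended a hairpin-primed heteropolymeric RNA (~3 nM, ~760 nt product) with α-[33P]-GTP for 2 h at 22–25° C. The reaction was stopped with EDTA, and incorporated label was counted on filters.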

Chain of BB7 (RNA-dependent RNA polymerase hepatitis C virus protein sequence derived from HCV replicon) (Q9WMX2 2420-3010): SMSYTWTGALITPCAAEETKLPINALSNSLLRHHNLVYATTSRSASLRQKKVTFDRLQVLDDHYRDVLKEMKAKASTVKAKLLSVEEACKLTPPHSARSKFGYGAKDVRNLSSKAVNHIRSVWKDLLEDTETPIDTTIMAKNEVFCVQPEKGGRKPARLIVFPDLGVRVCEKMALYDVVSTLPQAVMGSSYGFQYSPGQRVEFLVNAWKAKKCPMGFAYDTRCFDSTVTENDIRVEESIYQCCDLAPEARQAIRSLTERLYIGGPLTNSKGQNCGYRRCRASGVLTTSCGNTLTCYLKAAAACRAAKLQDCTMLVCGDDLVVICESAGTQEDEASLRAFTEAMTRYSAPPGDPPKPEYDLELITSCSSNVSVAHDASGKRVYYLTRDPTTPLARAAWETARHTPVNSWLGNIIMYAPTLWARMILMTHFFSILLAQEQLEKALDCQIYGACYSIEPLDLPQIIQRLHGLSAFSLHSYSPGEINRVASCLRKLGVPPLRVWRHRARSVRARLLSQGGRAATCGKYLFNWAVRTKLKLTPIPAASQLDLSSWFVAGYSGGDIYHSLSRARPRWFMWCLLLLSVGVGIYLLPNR
T1 sequence (P26663 2420-2989): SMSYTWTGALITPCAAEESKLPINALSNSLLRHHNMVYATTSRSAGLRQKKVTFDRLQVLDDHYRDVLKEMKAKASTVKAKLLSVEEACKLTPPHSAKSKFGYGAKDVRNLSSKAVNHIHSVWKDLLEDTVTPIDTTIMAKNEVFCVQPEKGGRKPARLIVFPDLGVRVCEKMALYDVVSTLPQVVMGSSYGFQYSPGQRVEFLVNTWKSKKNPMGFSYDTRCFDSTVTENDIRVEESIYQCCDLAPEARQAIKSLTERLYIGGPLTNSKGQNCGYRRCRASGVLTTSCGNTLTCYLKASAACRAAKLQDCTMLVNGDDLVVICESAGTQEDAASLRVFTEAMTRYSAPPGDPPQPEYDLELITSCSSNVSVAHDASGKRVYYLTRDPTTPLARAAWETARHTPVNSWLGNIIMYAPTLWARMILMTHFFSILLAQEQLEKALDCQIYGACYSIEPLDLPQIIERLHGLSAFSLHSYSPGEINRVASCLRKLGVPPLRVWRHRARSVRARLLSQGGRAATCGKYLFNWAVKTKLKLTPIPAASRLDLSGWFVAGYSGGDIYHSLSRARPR

As to `CC[C@H](C)C1(CC(=O)O)OCCc2c1[nH]c1c(Cl)ccc(C#N)c21` (mixture of isomers) [Example 324], the IC50 (commonly the point on the concentration scale where inhibition reaches its midpoint) in experiment [1] came to 350 nM; in experiment [2] it was 200 nM.

Consider `Cc1ccc(C#N)c2c3c([nH]c12)C(CC(=O)O)(C1CCCC1)OCC3` (centres unmarked) [Example 287, (5-cyano-1-cyclopentyl-8-methyl-1,3,4,9-tetrahydropyrano[3,4-b]indol-1-yl)acetic acid], for which the results for the IC50 in experiment [1] and in experiment [2] were 6500 nM and 5100 nM, respectively.

With `CCC[C@]1(CC(=O)O)OCCc2c1[nH]c1c(Cl)ccc(C#N)c21` [Example 322, (1R)-(8-chloro-5-cyano-1-propyl-1,3,4,9-tetrahydropyrano[3,4-b]indol-1-yl)acetic acid], the IC50 in experiment [1] stood at 160 nM; in experiment [2], 40 nM.

With `CCOCC1(CC(=O)O)OCCc2c1[nH]c1c(Cl)ccc(Cl)c21` (centres unmarked) [Example 248, (5,8-dichloro-1-ethoxymethyl-1,3,4,9-tetrahydropyrano[3,4-b]indol-1-yl)acetic acid], the IC50 in experiment [1] and in experiment [2] was above 30000 nM throughout.

On to `N#Cc1ccc(F)c2[nH]c3c(c12)CCOC3(CC(=O)O)C1CCC1` (centres unmarked) [Example 307, (5-cyano-1-cyclobutyl-8-fluoro-1,3,4,9-tetrahydropyrano[3,4-b]indol-1-yl)acetic acid], for which the IC50 in experiment [1] is 9600 nM; in experiment [2], 5800 nM.

Take `CCCC1(CC(=O)O)OCCc2c1[nH]c1c(C)c(OCc3cccc(F)c3)cc(C#N)c21` (centres unmarked) [Example 367, [5-cyano-7-(3-fluoro-benzyloxy)-8-methyl-1-propyl-1,3,4,9-tetrahydro-pyrano[3,4-b]indol-1-yl]acetic acid]: the IC50 was determined as 90 nM in experiment [1] and 80 nM in experiment [2].

For `Cc1ccc([N+](=O)[O-])c2c3c([nH]c12)C(CC(=O)O)(C1CCC1)OCC3` (centres unmarked) [Example 299, (1-cyclobutyl-8-methyl-5-nitro-1,3,4,9-tetrahydropyrano[3,4-b]indol-1-yl]acetic acid], the IC50 was determined as 900 nM in experiment [1] and 500 nM in experiment [2].

On to `N#Cc1ccc(F)c2[nH]c3c(c12)CCOC3(CC(=O)O)C1CC1` (centres unmarked) [Example 306, (5-cyano-1-cyclopropyl-8-fluoro-1,3,4,9-tetrahydropyrano[3,4-b]indol-1-yl)acetic acid], for which the IC50 in experiment [1] and in experiment [2] was above 30000 nM throughout.

As for `Cc1ccc(C#N)c2c3c([nH]c12)C(C(=O)O)(C1CCC1)OCC3` (centres unmarked) [Example 338, (5-cyano-1-cyclobutyl-8-methyl-1,3,4,9-tetrahydropyrano[3,4-b]indol-1-yl)carboxylic acid], the figures for the IC50 in experiment [1] and in experiment [2] were 3900 nM and 3300 nM, respectively.

Consider `CCCC1(CC(=O)O)OCCc2c1[nH]c1c(C)c(OC(C)C)cc(C#N)c21` (centres unmarked) [Example 364, (5-cyano-7-isopropoxy-8-methyl-1-propyl-1,3,4,9-tetrahydro-pyrano[3,4-b]indol-1-yl)-acetic acid], for which the IC50 is 220 nM in experiment [1] and 480 nM in experiment [2].

For `CCC(C)C1(CC(=O)O)OCCc2c1[nH]c1c(Cl)ccc(Cl)c21` (centres unmarked) [Example 256, [5,8-dichloro-1-(1-methylpropyl)-1,3,4,9-tetrahydropyrano[3,4-b]indol-1-yl]acetic acid], the IC50 in experiment [1] came to 340 nM; in experiment [2] it was 150 nM.

Take `C=CCCC1(C(=O)O)OCCc2c1[nH]c1c(F)ccc(C#N)c21` (centres unmarked) [Example 346, [1-(3-butenyl)-5-cyano-8-fluoro-1,3,4,9-tetrahydropyrano[3,4-b]indol-1-yl]carboxylic acid]: the IC50 in experiment [1] turned out to be 8000 nM; in experiment [2] it was 6100 nM.

In the case of `CCCC1(CC(=O)O)OCCc2c1[nH]c1c(Cl)ccc(C)c21` (centres unmarked) [Example 262, (8-chloro-5-methyl-1-propyl-1,3,4,9-tetrahydropyrano[3,4-b]indol-1-yl)acetic acid], the results for the IC50 in experiment [1] and in experiment [2] were 8300 nM and 2700 nM, respectively.

Turning to `CCCC1(CC(=O)O)OCCc2c1[nH]c1c(C)c(C(=O)NC(C)C)cc(C#N)c21` (centres unmarked) [Example 355, (5-cyano-7-isopropylcarbamoyl-8-methyl-1-propyl-1,3,4,9-tetrahydro-pyrano[3,4-b]indol-1-yl)-acetic acid], the IC50 is 2900 nM in experiment [1] and 5100 nM in experiment [2].

In the case of `CC[C@H](C)[C@@]1(C(=O)O)OCCc2c1[nH]c1c(F)ccc(C#N)c21` (racemic) [Example 348, (1R*,10S*)-[5-cyano-8-fluoro-1-(1-methylpropyl)-1,3,4,9-tetrahydropyrano[3,4-b]indol-1-yl]carboxylic acid], the IC50 in experiment [1] and in experiment [2] was above 30000 nM each time.

As to `CCC[C@@]1(C(=O)O)OCCc2c1[nH]c1c(F)ccc(C#N)c21` [Example 343, (1R)-(5-cyano-8-fluoro-1-propyl-1,3,4,9-tetrahydropyrano[3,4-b]-indol 1-yl)carboxylic acid], the IC50 in experiment [1] and in experiment [2] was above 30000 nM each time.

On to `CSCC1(CC(=O)O)OCCc2c1[nH]c1c(C)ccc(C#N)c21` (centres unmarked) [Example 282, (5-cyano-1-methylthiomethyl-8-methyl-1,3,4,9-tetrahydropyrano[3,4-b]indol-1-yl)acetic acid], for which the IC50 in experiment [1] worked out at 22000 nM; in experiment [2], 13000 nM.

For the molecule `CC[C@H](C)C1(CC(=O)O)OCCc2c1[nH]c1c(C#N)ccc(C(F)(F)F)c21` (mixture of isomers) [Example 279, (1R*,10S)-[8-cyano-1-(1-methylpropyl)-5-trifluoromethyl-1,3,4,9-tetrahydropyrano[3,4-b]indol-1-yl]acetic acid], the IC50 worked out at 2400 nM in experiment [1] and 2000 nM in experiment [2].

As for `CCCOc1cc(C#N)c2c3c([nH]c2c1C)[C@](CCC)(CC(=O)O)OCC3` [Example 361, (1S)-(5-cyano-8-methyl-7-propoxy-1-propyl-1,3,4,9-tetrahydro-pyrano[3,4-b]indol-1-yl)-acetic acid], the results for the IC50 in experiment [1] and in experiment [2] were 770 nM and 1800 nM, respectively.

With `CC[C@H](C)C1(CC(=O)O)OCCc2c1[nH]c1c(C)cc(F)c(C#N)c21` (mixture of isomers) [Example 318, (1R*,10S)-[5-cyano-6-fluoro-8-methyl-1-(1-methylpropyl)-1,3,4,9-tetrahydropyrano[3,4-b]indol-1-yl]acetic acid], the IC50 was 250 nM in experiment [1] and 140 nM in experiment [2].

Turning to `CC[C@H](C)[C@]1(CC(=O)O)OCCc2c1[nH]c1c(C)cc(F)c(C#N)c21` [Example 320, (1S,10S)-[5-cyano-6-fluoro-8-methyl-1-(1-methylpropyl)-1,3,4,9tetrahydropyrano[3,4-b]indol-1-yl]acetic acid], the IC50 in experiment [1] was 6000 nM; in experiment [2] it was 2900 nM.

For `CCSCC1(CC(=O)O)OCCc2c1[nH]c1c(Cl)ccc(Cl)c21` (centres unmarked) [Example 250, (5,8-dichloro-1-ethylthiomethyl-1,3,4,9-tetrahydropyrano[3,4-b]indol-1-yl)acetic acid], the IC50 was found to be 3900 nM in experiment [1] and 3700 nM in experiment [2].

With `CCC(C)C1(CC(=O)O)OCCc2c1[nH]c1c(F)ccc(C#N)c21` (racemic) [Example 314, (1R*,10S)-[5-cyano-8-fluoro-1-(1-methylpropyl)-1,3,4,9-tetrahydropyrano[3,4-b]indol-1-yl]acetic acid], the values for the IC50 in experiment [1] and in experiment [2] were 3100 nM and 1400 nM, respectively.

With `COCC1(CC(=O)O)OCCc2c1[nH]c1ccc(Cl)c(Cl)c21` (centres unmarked) [Example 237, (5,6-Dichloro-1-methoxymethyl-1,3,4,9-tetrahydropyrano[3,4-b]indol-1-yl)acetic acid], the IC50 in experiment [1] was above 24000 nM; in experiment [2] it was above 27000 nM.

Consider “[5-cyano-1-(1-ethylethyl)-8-methyl-1,3,4,9-tetrahydropyrano[3,4-b]indol-1-yl]acetic acid [Example 294]”, for which the IC50 in experiment [1] and in experiment [2] was above 30000 nM in each case.

On to `CCCC1(C(=O)O)OCCc2c1[nH]c1c(Cl)ccc(C(F)(F)F)c21` (centres unmarked) [Example 331, (8-chloro-5-trifluoromethyl-1-propyl-1,3,4,9-tetrahydropyrano[3,4-b]indol-1-yl)carboxylic acid], for which the 50% inhibitory concentration (IC50) is 2500 nM in experiment [1] and 500 nM in experiment [2].

On to `CC[C@H](C)[C@@]1(CC(=O)O)OCCc2c1[nH]c1c(C)ccc(C#N)c21` (racemic) [Example 289, (1R*,10S*)-[5-cyano-8-methyl-1-(1-methylpropyl)-1,3,4,9-tetrahydropyrano[3,4-b]indol-1-yl]acetic acid], for which the IC50 in experiment [1] was found to be 230 nM; in experiment [2], 120 nM.

On to `COCC1(CC(=O)O)OCCc2c1[nH]c1c(F)ccc(C#N)c21` (centres unmarked) [Example 303, (5-cyano-8-fluoro-1-methoxymethyl-1,3,4,9-tetrahydropyrano[3,4-b]indol-1-yl)acetic acid], for which the IC50 in experiment [1] and in experiment [2] was above 30000 nM in each case.

As to `N#Cc1ccc(Cl)c2[nH]c3c(c12)CCOC3(CC(=O)O)C1CCC1` (centres unmarked) [Example 327, (8-chloro-5-cyano-1-cyclobutyl-1,3,4,9-tetrahydropyrano[3,4-b]indol-1-yl)acetic acid], the IC50 in experiment [1] was found to be 1700 nM; in experiment [2] it was 800 nM.

As for `CC[C@H](C)[C@@]1(CC(=O)O)OCCc2c1[nH]c1c(C)ccc(C#N)c21` [Example 292, (1R,10S)-[5-cyano-8-methyl-1-(1-methylpropyl)-1,3,4,9-tetrahydropyrano[3,4-b]indol-1-yl]acetic acid], the figures for the IC50 in experiment [1] and in experiment [2] were 260 nM and 130 nM, respectively.

As to `CC[C@@H](C)[C@@]1(CC(=O)O)OCCc2c1[nH]c1c(C)ccc(C#N)c21` (racemic) [Example 290, (1R*,10R*)-[5-cyano-8-methyl-1-(1-methylpropyl)-1,3,4,9-tetrahydropyrano[3,4-b]indol-1-yl]acetic acid], the IC50 in experiment [1] is 4900 nM; in experiment [2], 3200 nM.
